# Measurements taken from publication PMC11087268, “A folate inhibitor exploits metabolic differences in Pseudomonas aeruginosa for narrow-spectrum targeting” (Nature Microbiology, 2024).
# “And” between values parts separate entries of the source, which are not always exact repeats. Identical values can stand only once. Like-named read-outs stand apart in the source and are kept apart here.
# Legend:
# P. aeruginosa PA14 = assay: Colony-forming units counting after antibiotic treatment; format: cell-based, Pseudomonas aeruginosa; details: 2× MIC (fluorofolin 6.2, TMP 250, polymixin B 4 μg ml^−1)
# Protocol: P. aeruginosa PA14 overnight cultures were diluted 1:100 and grown to exponential phase (OD600 = 0.4–0.6). Cultures were diluted 1:10 and treated with antibiotic. At each time point, 150 μl of culture was removed, serial diluted 1:10 six times and plated onto LB agar plates. Plates were grown overnight at 37 °C, after which visible colonies were counted. C.f.u.s ml^−1 are reported from dilutions in which ~10–100 single colonies were visible.
# [1] = tested on: P. aeruginosa clinical isolates; format: cell-based, Pseudomonas aeruginosa; details: for clinical isolates resistant: 77 P. aeruginosa clinical isolates (55 CDC/FDA, 22 blood), 50 μg ml^−1, growth inhibition >80% = sensitive; for % Growth: 50ug/mL
# Protocol: Percent growth was calculated by dividing the OD600 of fluorofolin antibiotic-treated wells by that of vehicle-only wells.
# [2] = tested on: PA14 nfxB (T39P) and mexS (L46F) mutants; assay: Pyocyanin production; format: cell-based, Pseudomonas aeruginosa; details: for Pyocyanin production (Panel E): single replicates
# Protocol: […] Cell-free supernatants were […] by centrifugation, and 100 μl were added to a 96-well plate in duplicate. The integrated absorbance spectrum from 306 to 326 nm was taken in a Tecan InfiniteM200 Pro plate reader to determine pyocyanin levels in each sample. A ΔpqsA sample was used to subtract out any background values, and pyocyanin levels were normalized by the ratio of OD600 between wildtype PA14 and the mutants to account for any slight differences in growth.
# sheep red blood cells = assay: Haemolysis; format: cell-based; details: 1 h, vs Triton X-100 100% lysis
# Protocol: Samples were treated at 37 °C with shaking for 1 h and then centrifuged. Supernatants were collected and absorbances were measured at 405 nm in a Tecan InfiniteM200 Pro microplate reader.
compound,measurement,setting,value
polymixin B,"PA14 CFU/mL, Mean",P. aeruginosa PA14; Time 0 h,197000 CFU/mL
same,"PA14 CFU/mL, Mean",P. aeruginosa PA14; Time 1 h,81.6667 CFU/mL
same,"PA14 CFU/mL, Mean",P. aeruginosa PA14; Time 2 h,17.7778 CFU/mL
same,"PA14 CFU/mL, Mean",P. aeruginosa PA14; Time 4 h,20 CFU/mL
C[C@@H](O)[C@H]1C(=O)N2C(C(=O)O)=C(S[C@@H]3CN[C@H](C(=O)N(C)C)C3)[C@H](C)[C@H]12 [meropenem],clinical isolates resistant,[1],74.0%
same,% Growth,[1]; Isolate# 1,113.227%
same,% Growth,[1]; Isolate# 2,104.859%
same,% Growth,[1]; Isolate# 3,93.4328%
same,% Growth,[1]; Isolate# 4,45.5006%
same,% Growth,[1]; Isolate# 5,93.4656%
same,% Growth,[1]; Isolate# 6,77.5947%
same,% Growth,[1]; Isolate# 7,101.901%
same,% Growth,[1]; Isolate# 8,45.9194%
same,% Growth,[1]; Isolate# 9,53.5808%
same,% Growth,[1]; Isolate# 10,5.367%
same,% Growth,[1]; Isolate# 11,99.5105%
same,% Growth,[1]; Isolate# 12,98.7175%
same,% Growth,[1]; Isolate# 13,37.9571%
same,% Growth,[1]; Isolate# 14,104.583%
same,% Growth,[1]; Isolate# 15,111.823%
same,% Growth,[1]; Isolate# 16,82.8716%
same,% Growth,[1]; Isolate# 17,101.338%
same,% Growth,[1]; Isolate# 18,69.0131%
same,% Growth,[1]; Isolate# 19,139.474%
same,% Growth,[1]; Isolate# 20,102.365%
same,% Growth,[1]; Isolate# 21,105.977%
same,% Growth,[1]; Isolate# 22,100%
same,% Growth,[1]; Isolate# 23,99.084%
same,% Growth,[1]; Isolate# 24,101.66%
same,% Growth,[1]; Isolate# 25,0.3832%
same,% Growth,[1]; Isolate# 26,108.084%
same,% Growth,[1]; Isolate# 27,90.2732%
same,% Growth,[1]; Isolate# 28,50.4713%
same,% Growth,[1]; Isolate# 29,81.8075%
same,% Growth,[1]; Isolate# 30,25.5041%
same,% Growth,[1]; Isolate# 31,2.581%
same,% Growth,[1]; Isolate# 32,49.1417%
same,% Growth,[1]; Isolate# 33,0%
same,% Growth,[1]; Isolate# 34,7.796%
same,% Growth,[1]; Isolate# 35,0.5421%
same,% Growth,[1]; Isolate# 36,34.6796%
same,% Growth,[1]; Isolate# 37,97.561%
same,% Growth,[1]; Isolate# 38,159.815%
same,% Growth,[1]; Isolate# 39,38.9532%
same,% Growth,[1]; Isolate# 40,99.0807%
same,% Growth,[1]; Isolate# 41,94.6179%
same,% Growth,[1]; Isolate# 42,57.1194%
same,% Growth,[1]; Isolate# 43,47.1218%
same,% Growth,[1]; Isolate# 44,108.201%
same,% Growth,[1]; Isolate# 45,95.4718%
same,% Growth,[1]; Isolate# 46,98.3594%
same,% Growth,[1]; Isolate# 47,114.345%
same,% Growth,[1]; Isolate# 48,88.9096%
same,% Growth,[1]; Isolate# 49,96.2021%
same,% Growth,[1]; Isolate# 50,122.491%
same,% Growth,[1]; Isolate# 51,46.991%
same,% Growth,[1]; Isolate# 52,2.293%
same,% Growth,[1]; Isolate# 53,3.543%
same,% Growth,[1]; Isolate# 54,4.738%
same,% Growth,[1]; Isolate# 55,0%
same,% Growth,[1]; Isolate# 56,121.285%
same,% Growth,[1]; Isolate# 57,61.1775%
same,% Growth,[1]; Isolate# 58,74.7799%
same,% Growth,[1]; Isolate# 59,114.529%
same,% Growth,[1]; Isolate# 60,144.06%
same,% Growth,[1]; Isolate# 61,63.8412%
same,% Growth,[1]; Isolate# 62,95.6203%
same,% Growth,[1]; Isolate# 63,0%
same,% Growth,[1]; Isolate# 64,0.5899%
same,% Growth,[1]; Isolate# 65,0.9518%
same,% Growth,[1]; Isolate# 66,19.8024%
same,% Growth,[1]; Isolate# 67,10.308%
same,% Growth,[1]; Isolate# 68,0.6936%
same,% Growth,[1]; Isolate# 69,5.952%
same,% Growth,[1]; Isolate# 70,25.3374%
same,% Growth,[1]; Isolate# 71,98.2336%
same,% Growth,[1]; Isolate# 72,90.6634%
same,% Growth,[1]; Isolate# 73,0%
same,% Growth,[1]; Isolate# 74,128.066%
same,% Growth,[1]; Isolate# 75,2.406%
same,% Growth,[1]; Isolate# 76,11.0259%
same,% Growth,[1]; Isolate# 77,28.4071%
gentamycin,clinical isolates resistant,[1],35.0%
same,% Growth,[1]; Isolate# 1,0.6518%
same,% Growth,[1]; Isolate# 2,105.422%
same,% Growth,[1]; Isolate# 3,61.3464%
same,% Growth,[1]; Isolate# 4,179.172%
same,% Growth,[1]; Isolate# 5,0%
same,% Growth,[1]; Isolate# 6,89.7261%
same,% Growth,[1]; Isolate# 7,110.349%
same,% Growth,[1]; Isolate# 8,97.3307%
same,% Growth,[1]; Isolate# 9,0%
same,% Growth,[1]; Isolate# 10,0%
same,% Growth,[1]; Isolate# 11,111.492%
same,% Growth,[1]; Isolate# 12,30.6669%
same,% Growth,[1]; Isolate# 13,9.611%
same,% Growth,[1]; Isolate# 14,99.0331%
same,% Growth,[1]; Isolate# 15,99.6274%
same,% Growth,[1]; Isolate# 16,86.3373%
same,% Growth,[1]; Isolate# 17,0.5763%
same,% Growth,[1]; Isolate# 18,84.8111%
same,% Growth,[1]; Isolate# 19,0%
same,% Growth,[1]; Isolate# 20,92.394%
same,% Growth,[1]; Isolate# 21,106.701%
same,% Growth,[1]; Isolate# 22,98.4485%
same,% Growth,[1]; Isolate# 23,0%
same,% Growth,[1]; Isolate# 24,0%
same,% Growth,[1]; Isolate# 25,0%
same,% Growth,[1]; Isolate# 26,111.123%
same,% Growth,[1]; Isolate# 27,88.2969%
same,% Growth,[1]; Isolate# 28,0%
same,% Growth,[1]; Isolate# 29,0%
same,% Growth,[1]; Isolate# 30,1.897%
same,% Growth,[1]; Isolate# 31,0%
same,% Growth,[1]; Isolate# 32,104.806%
same,% Growth,[1]; Isolate# 33,0%
same,% Growth,[1]; Isolate# 34,0%
same,% Growth,[1]; Isolate# 35,0%
same,% Growth,[1]; Isolate# 36,0%
same,% Growth,[1]; Isolate# 37,95.3633%
same,% Growth,[1]; Isolate# 38,100.4%
same,% Growth,[1]; Isolate# 39,0%
same,% Growth,[1]; Isolate# 40,0%
same,% Growth,[1]; Isolate# 41,0%
same,% Growth,[1]; Isolate# 42,0%
same,% Growth,[1]; Isolate# 43,82.8316%
same,% Growth,[1]; Isolate# 44,5.792%
same,% Growth,[1]; Isolate# 45,88.2389%
same,% Growth,[1]; Isolate# 46,13.0256%
same,% Growth,[1]; Isolate# 47,70.0551%
same,% Growth,[1]; Isolate# 48,0%
same,% Growth,[1]; Isolate# 49,0%
same,% Growth,[1]; Isolate# 50,2.976%
same,% Growth,[1]; Isolate# 51,0%
same,% Growth,[1]; Isolate# 52,0%
same,% Growth,[1]; Isolate# 53,0%
same,% Growth,[1]; Isolate# 54,0.0248%
same,% Growth,[1]; Isolate# 55,142.857%
same,% Growth,[1]; Isolate# 56,0%
same,% Growth,[1]; Isolate# 57,61.626%
same,% Growth,[1]; Isolate# 58,0.9683%
same,% Growth,[1]; Isolate# 59,34.5167%
same,% Growth,[1]; Isolate# 60,0%
same,% Growth,[1]; Isolate# 61,0%
same,% Growth,[1]; Isolate# 62,0%
same,% Growth,[1]; Isolate# 63,0%
same,% Growth,[1]; Isolate# 64,0%
same,% Growth,[1]; Isolate# 65,0%
same,% Growth,[1]; Isolate# 66,0%
same,% Growth,[1]; Isolate# 67,0%
same,% Growth,[1]; Isolate# 68,0%
same,% Growth,[1]; Isolate# 69,0.2922%
same,% Growth,[1]; Isolate# 70,0%
same,% Growth,[1]; Isolate# 71,0%
same,% Growth,[1]; Isolate# 72,106.187%
same,% Growth,[1]; Isolate# 73,0%
same,% Growth,[1]; Isolate# 74,0%
same,% Growth,[1]; Isolate# 75,0%
same,% Growth,[1]; Isolate# 76,0.1836%
same,% Growth,[1]; Isolate# 77,1.314%
"CCCCCCCc1[nH]c2ccccc2c(=O)c1O [PQS, Pseudomonas quinolone signal]",Pyocyanin production (Panel E),"[2]; PA14, + 1 uM PQS",15.8282 and 16.194 and 15.1165
same,pyocyanin production of nfxB and mexS mutants,[2]; PQS 1 μM added at inoculation,partially rescued
same,Pyocyanin production (Panel E),"[2]; PqsA KO, + 1 uM PQS",17.5069 and 16.392 and 16.1857
same,Pyocyanin production (Panel E),"[2]; mexS Mutant, + 1 uM PQS",10.0838 and 9.877 and 13.1798
same,Pyocyanin production (Panel E),"[2]; nfxB mutant, + 1 uM PQS",8.219 and 6.016 and 7.118
CC(C)c1ccc(Cn2ccc3c4c(N)nc(NC5CC5)nc4ccc32)cc1 [SCH-79797],"% Hemolysis, Mean",sheep red blood cells; 0.78125 ug/mL,0.2789%
same,"% Hemolysis, Mean",sheep red blood cells; 1.5625 ug/mL,-0.7082%
same,"% Hemolysis, Mean",sheep red blood cells; 3.125 ug/mL,-0.9423%
same,"% Hemolysis, Mean",sheep red blood cells; 6.25 ug/mL,0.9543%
same,"% Hemolysis, Mean",sheep red blood cells; 12.5 ug/mL,20.9447%
same,"% Hemolysis, Mean",sheep red blood cells; 25 ug/mL,53.6334%
same,"% Hemolysis, Mean",sheep red blood cells; 50 ug/mL,64.7041%
